Earlier results, collected in WO2005058299A1, “Phenethanolamine derivatives for treatment of respiratory diseases” (Glaxo Group Ltd, priority 2003, dated 2005).

System: PDE4
Settings: IC50 for PDE4 form which binds rolipram with high affinity divided by IC50 for form which binds rolipram with low affinity

IC50 ratio | Compound
≥ 0.1 | COC(=O)C1CC(C#N)(c2ccc(OC(F)F)c(OCC3CC3)c2)CCC1=O (stereo not drawn) [2-carbomethoxy-4-cyano-4-(3-cyclopropylmethoxy-4-difluoromethoxyphenyl)cyclohexan-1-one]
≥ 0.1 | c/s-[4-cyano-4-(3-cyclopropylmethoxy-4- difluoromethoxyphenyl)cyclohexan-1-ol]

Compound | IC50 ratio
COc1ccc([C@]2(C#N)CC[C@@H](C(=O)O)CC2)cc1OC1CCCC1 [cis 4-cyano-4-(3-cyclopentyloxy-4-methoxyphenyl)cyclohexan-1-carboxylic acid] | ≥ 0.1
